Results reported in patent US9340574B2, “Inhibitors of protein tyrosine phosphatases” (Indiana University Research and Technology Corporation, priority 2012, dated 2016).

Legend:
VHR = VHR (Homo sapiens (Human), UniProt P51452); test: pNPP hydrolysis enzyme assay, VHR; type: biochemical
Method: (§1) Enzyme kinetic assay. PTP activity was assayed using p-nitrophenyl phosphate (pNPP) as a substrate in 3,3-dimethylglutarate buffer (50 mM 3,3-dimethylglutarate, pH 7.0, 1 mM EDTA, 150 mM NaCl, 2 mM DTT, 0.1 mg/mL BSA) at 25° C. The assays were performed in 96-well plates. Normally, to determine the IC50 values, the reaction was initiated by the addition of enzyme (final concentration at 10 nM) to a reaction mixture (0.2 mL) containing 2 mM (Km for the substrate) pNPP with various concentrations of inhibitors. The reaction rate was measured using a SpectraMax Plus 384 Microplate Spectrophotometer (Molecular Devices). To determine the mode of inhibition, the reactions were initiated by the addition of PTP-MEG2 to the reaction mixtures (0.2 mL) containing various concentrations of pNPP with different concentrations of the inhibitor 7. Data were fitted using SigmaPlot Enzyme Kinetics Module (Systat Software, Inc.).

DEP1 = DEP1 (Homo sapiens (Human), UniProt Q12913); test: pNPP hydrolysis enzyme assay, DEP1; type: biochemical
Chain of DEP1 (Q12913 36-1337, species assumed): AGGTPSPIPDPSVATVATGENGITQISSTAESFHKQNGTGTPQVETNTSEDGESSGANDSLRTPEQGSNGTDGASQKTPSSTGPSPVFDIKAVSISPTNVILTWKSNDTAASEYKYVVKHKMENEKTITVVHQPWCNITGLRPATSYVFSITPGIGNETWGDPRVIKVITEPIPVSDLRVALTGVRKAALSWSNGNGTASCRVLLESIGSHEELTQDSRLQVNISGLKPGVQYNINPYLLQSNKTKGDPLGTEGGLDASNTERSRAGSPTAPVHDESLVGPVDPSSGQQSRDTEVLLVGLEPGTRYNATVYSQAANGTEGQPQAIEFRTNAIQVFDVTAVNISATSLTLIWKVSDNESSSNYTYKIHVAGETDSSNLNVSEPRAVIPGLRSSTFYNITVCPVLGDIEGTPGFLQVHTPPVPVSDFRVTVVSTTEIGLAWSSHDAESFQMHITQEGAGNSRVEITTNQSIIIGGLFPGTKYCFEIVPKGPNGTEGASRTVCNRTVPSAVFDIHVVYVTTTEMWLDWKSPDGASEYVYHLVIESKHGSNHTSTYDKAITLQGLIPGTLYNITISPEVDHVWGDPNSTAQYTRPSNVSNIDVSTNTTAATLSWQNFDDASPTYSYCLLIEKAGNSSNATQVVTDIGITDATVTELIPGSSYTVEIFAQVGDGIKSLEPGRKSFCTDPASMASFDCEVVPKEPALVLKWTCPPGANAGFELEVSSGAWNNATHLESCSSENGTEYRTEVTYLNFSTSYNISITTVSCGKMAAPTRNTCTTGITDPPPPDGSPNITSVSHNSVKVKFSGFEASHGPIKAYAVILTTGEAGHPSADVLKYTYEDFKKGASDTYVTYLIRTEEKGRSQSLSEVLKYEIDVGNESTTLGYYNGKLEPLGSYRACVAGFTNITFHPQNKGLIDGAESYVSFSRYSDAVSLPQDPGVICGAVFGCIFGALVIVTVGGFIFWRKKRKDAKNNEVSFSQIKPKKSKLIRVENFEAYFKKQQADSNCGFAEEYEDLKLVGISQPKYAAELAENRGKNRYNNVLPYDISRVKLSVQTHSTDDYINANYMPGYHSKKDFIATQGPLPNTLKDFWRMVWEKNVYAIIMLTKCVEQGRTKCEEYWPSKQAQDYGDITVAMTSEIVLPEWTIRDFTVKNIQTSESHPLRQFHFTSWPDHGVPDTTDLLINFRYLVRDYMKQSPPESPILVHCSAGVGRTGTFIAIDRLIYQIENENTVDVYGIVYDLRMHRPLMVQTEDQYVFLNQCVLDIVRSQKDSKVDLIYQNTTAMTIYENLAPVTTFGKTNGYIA
Method: as §1

HepG2 hepatocytes = test: Insulin signaling in HepG2 hepatocytes; type: cell-based; settings: HepG2, 1 hour pretreatment, 10 nM insulin 30 min
Method: Cell lysate (20 μg protein) was subjected to 10% SDS-PAGE and probed with phospho-Akt, phospho-IR (Y1162/1163) or Akt antibody, respectively. […] Cell lysate (20 μg protein) was subjected to 10% SDS-PAGE and probed with phospho-IR(Y1162/1163), phospho-Akt (pS473) or total Akt antibody, respectively. […] Cell lysate (20 μg protein) or insulin receptor immunoprecipitation beads were subjected to 10% SDS-PAGE and probed with phospho-Akt, Akt, insulin receptor beta or phospho-tyrosine antibody (4G10), respectively. The non-specific band from insulin receptor immunoprecipitates served as a loading control for insulin receptor and phospho-insulin receptor.
Western blot analysis. Cells were homogenized in the lysis buffer (50 mM Hepes, pH 7.5, 150 mM NaCl, 10% Glycerol, 1% Triton X-100, 1.5 mM MgCl2, 1 mM EGTA, 10 μM Sodium Pyrophosphate, 100 mM sodium fluoride and freshly added 100 μM sodium vanadate, 1 mM PMSF, 10 μg/ml Aprotinin, and 10 μg/mL Leupeptin). Protein extracts were resolved on an SDS-PAGE gel and transferred to nitrocellulose membrane. […] Protein signals were detected by incubation with HRP-conjugated secondary antibodies, followed by ECL detection reagent (Pierce). Western blots were scanned and quantified using the Quantity One software (Bio-Rad).

[1] = Pharmacokinetics in mouse plasma; type: in vivo; settings: for Cmax: mouse plasma
Method: Pharmacokinetic parameters for Compound 7. Compound 7 was quantified in mouse plasma using protein precipitation, internal standardization, and HPLC-MS/MS. Acetone was used to precipitate proteins and Compound 8 was the internal standard. Compound 7 and Compound 8 were separated using a C8 50×4.6 mm 5 um (Restek Ultra) HPLC column and a gradient mobile phase (acetonitrile:5 mM ammonium acetate). Compounds were detected using ESI in positive mode (Thermo Quantum Ultra; Thermo Fisher). The Q1/Q3 for Compound 7 and Compound 8 were 1087/300 and 957/231, respectively. The lower limit of quantification was 100 ng/mL using 20 μL of mouse plasma.
Pharmacokinetic parameters were estimated for Compound 7 after 5 mg/kg intravenous and 20 mg/kg intraperitoneal dosage, respectively. These parameters including area under the curve (AUC), area under the first moment curve (AUMC) and the elimination rate constant, kel, were estimated using noncompartmental methods with add-ins on Excel®. The maximum plasma concentration (Cmax) was obtained from the data. For the intravenous injection, the Cmax was estimated by extrapolating the data to zero time. The terminal half-life, t1/2, was estimated with 0.693/kel. The AUC from the last concentration, Clast, to infinity was estimated by Clast/kel. The systemic clearance (Cl or Cl/F) was calculated with dose/AUC0-∞ and the volume of distribution at steady state (Vdss or Vdss/F) was calculated using the Cl and the mean residence time (MRT; MRT=(Dose/AUC)×(AUMC/AUC)). The bioavailability (F) was estimated by comparing the Cl of intravenous and intraperitoneal injections.

[2] = mouse, 20 mg/Kg intraperitoneal injection
[3] = plasma, mouse, 5 mg/Kg intravenous injection

Chain of VHR (P51452 whole entry, species assumed): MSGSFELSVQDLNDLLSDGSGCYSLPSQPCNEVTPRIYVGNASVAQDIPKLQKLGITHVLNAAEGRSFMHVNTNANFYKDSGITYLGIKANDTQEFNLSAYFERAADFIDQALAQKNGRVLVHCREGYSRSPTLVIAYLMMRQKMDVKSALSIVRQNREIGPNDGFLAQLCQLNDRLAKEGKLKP

Q: Which IC50 (VHR) does the source give for `COc1cc(CC(=O)NCC(NC(=O)C(CCCNC(=O)c2cccc(I)c2)NC(=O)C(Cc2ccc(C(F)(F)P(=O)(O)O)cc2)NC(=O)c2ccc(C)c(Br)c2)C(N)=O)ccc1O` (stereo not drawn) [Compound 7] here?
A: The IC50 was > 10000 nM.

Q: What about the IC50 (DEP1) of the same molecule?
A: Its IC50 is > 10000 nM.

Q: What about the “insulin signaling (phospho-IR, phospho-Akt)” value (HepG2 hepatocytes) of the same molecule?
A: Its value is “augmented insulin signaling”.

Q: What about the Cmax ([1]; ip, 20 mg/Kg intraperitoneal injection) of the same molecule?
A: Its Cmax is 4.5 µM.

Q: What about the Cmax ([1]; 5 mg/Kg intravenous injection, extrapolated to zero time) of the same molecule?
A: The Cmax was 25.7 µM.

Q: What about the Cl/F [1, 2] of the same molecule?
A: Its Cl/F is 0.047 L/h.

Q: And the t1/2 [1, 2]?
A: Its t1/2 is 1.8 h.

Q: And the half-life ([1]; plasma, ip, mouse, 20 mg/Kg intraperitoneal injection)?
A: The half-life was 1.8 h.

Q: What about the Vd/F ([1]; plasma, ip, mouse, 20 mg/Kg intraperitoneal injection, read-out: Vdss/F) of the same molecule?
A: The Vd/F was 0.08 L.

Q: And the clearance [1, 3]?
A: The clearance was 0.233 mL/min.

Q: And the half-life [1, 3]?
A: Its half-life is 0.8 h.

Q: And the Vd ([1]; plasma, mouse, 5 mg/Kg intravenous injection, read-out: Vdss)?
A: Its Vd is 0.007 L.
